Assay results published in article PMC12340957, “Interactions between Lipopolysaccharide and Peptide Bacteriocin BacSp222 Influence Their Biological Activities” (ACS Infectious Diseases, 2025).
Ends that are not written are not given here. * marks the point of attachment. For = O=C*

What was measured:
[1] = literature statement; ref number not given; cited from earlier work
Excerpt: Regarding factors produced by bacteria, the canonical example of molecules interacting with LPS are polymyxins. […] Polymyxins are effective antibacterial drugs that interact with LPS in the outer and inner membranes of the cell wall, ultimately causing a lethal effect. […] Colicins, a family of protein bacteriocins produced by , typically must cross the bacterial outer membrane to display bactericidal activity. Most colicins use porins and high-affinity receptors to cross the outer membrane and kill the target. However, for colicin N, there is no such high-affinity receptor, and this bacteriocin targets LPS instead. The receptor-binding domain of ColN binds to LPS near the membrane surface, and this interaction is required for its bactericidal activity. || Nisin, a peptide lantibiotic produced by , is another example of a bacteriocin that could utilize LPS as a receptor. […] The interaction described above leads to membrane disruption. The level of membrane disruption is related to the origin of the bacteria and the type of LPS as its rough type is more susceptible to nisin.

TLR4 = conditions: literature statement; ref number not given; cited from earlier work
Excerpt: Proteins and peptides capable of recognizing and binding LPS as well as altering its biological activity are present in both higher organisms and bacteria. In higher organisms, these polypeptides are most often involved in the immune response. One of the best-known examples is LPS-binding protein (LBP). It is an acute-phase plasma protein of mammals that forms a complex with LPS, and this complex then binds to CD14 (cluster of differentiation 14). This event initiates a signaling pathway through TLR4/MD-2 and triggers the activation of immune response. , In the absence of TLR4, MD-2 can also i ... || Regarding factors produced by bacteria, the canonical example of molecules interacting with LPS are polymyxins. […] Polymyxins are effective antibacterial drugs that interact with LPS in the outer and inner membranes of the cell wall, ultimately causing a lethal effect.

[2] = target: the molecule itself; test: dynamic light scattering; BacSp222 alone at 5, 50 and 500 μg/mL in PBS without Ca2+ and Mg2+, incubated 15 min at 37 °C, measured at 37 °C (Prometheus Panta); performed once

| Molecule | interaction with LPS [1] | inhibition of LPS-induced TLR4 activation (TLR4) | binding result [2] |
| --- | --- | --- | --- |
| Nisin | forms a molecular complex in model membranes and bacterial outer membrane extracts | – | – |
| polymyxins [reference compound] | high affinity to LPS | effectively block the biological effects of LPS, including TLR4 activation | – |
| For-MAGLLRFLLSKGRALYNWAKSHVGKVWEWLKSGATYEQIKEWIENALGWR (molecular mass 5.922 kDa; also called peptide BacSp222) [BacSp222 bacteriocin] | – | – | binds |
| colicin N: protein bacteriocin whose receptor-binding domain binds to LPS (protein, UniProt P08083 1-387, looked up) Colicin-N: MGSNGADNAHNNAFGGGKNPGIGNTSGAGSNGSASSNRGNSNGWSWSNKPHKNDGFHSDGSYHITFHGDNNSKPKPGGNSGNRGNNGDGASAKVGEITITPDNSKPGRYISSNPEYSLLAKLIDAESIKGTEVYTFHTRKGQYVKVTVPDSNIDKMRVDYVNWKGPKYNNKLVKRFVSQFLLFRKEEKEKNEKEALLKASELVSGMGDKLGEYLGVKYKNVAKEVANDIKNFHGRNIRSYNEAMASLNKVLANPKMKVNKSDKDAIVNAWKQVNAKDMANKIGNLGKAFKVADLAIKVEKIREKSIEGYNTGNWGPLLLEVESWIIGGVVAGVAISLFGAVLSFLPISGLAVTALGVIGIMTISYLSSFIDANRVSNINNIISSVIR | targets LPS | – | – |
